From patent US12384770B2, “Heterocyclic compound” (Takeda Pharmaceutical Company Limited, priority 2019, dated 2025)

Biological target: T1, HDAC6 enzyme (Homo sapiens, UniProt Q9UBN7)
T1 construct: HDAC6 enzyme prepared by transducing full length HDAC6 gene into Sf-9 insect cells; GST; purchased SignalChem; host or cells: Sf-9 insect cells
T1 sequence (Q9UBN7 1-1215): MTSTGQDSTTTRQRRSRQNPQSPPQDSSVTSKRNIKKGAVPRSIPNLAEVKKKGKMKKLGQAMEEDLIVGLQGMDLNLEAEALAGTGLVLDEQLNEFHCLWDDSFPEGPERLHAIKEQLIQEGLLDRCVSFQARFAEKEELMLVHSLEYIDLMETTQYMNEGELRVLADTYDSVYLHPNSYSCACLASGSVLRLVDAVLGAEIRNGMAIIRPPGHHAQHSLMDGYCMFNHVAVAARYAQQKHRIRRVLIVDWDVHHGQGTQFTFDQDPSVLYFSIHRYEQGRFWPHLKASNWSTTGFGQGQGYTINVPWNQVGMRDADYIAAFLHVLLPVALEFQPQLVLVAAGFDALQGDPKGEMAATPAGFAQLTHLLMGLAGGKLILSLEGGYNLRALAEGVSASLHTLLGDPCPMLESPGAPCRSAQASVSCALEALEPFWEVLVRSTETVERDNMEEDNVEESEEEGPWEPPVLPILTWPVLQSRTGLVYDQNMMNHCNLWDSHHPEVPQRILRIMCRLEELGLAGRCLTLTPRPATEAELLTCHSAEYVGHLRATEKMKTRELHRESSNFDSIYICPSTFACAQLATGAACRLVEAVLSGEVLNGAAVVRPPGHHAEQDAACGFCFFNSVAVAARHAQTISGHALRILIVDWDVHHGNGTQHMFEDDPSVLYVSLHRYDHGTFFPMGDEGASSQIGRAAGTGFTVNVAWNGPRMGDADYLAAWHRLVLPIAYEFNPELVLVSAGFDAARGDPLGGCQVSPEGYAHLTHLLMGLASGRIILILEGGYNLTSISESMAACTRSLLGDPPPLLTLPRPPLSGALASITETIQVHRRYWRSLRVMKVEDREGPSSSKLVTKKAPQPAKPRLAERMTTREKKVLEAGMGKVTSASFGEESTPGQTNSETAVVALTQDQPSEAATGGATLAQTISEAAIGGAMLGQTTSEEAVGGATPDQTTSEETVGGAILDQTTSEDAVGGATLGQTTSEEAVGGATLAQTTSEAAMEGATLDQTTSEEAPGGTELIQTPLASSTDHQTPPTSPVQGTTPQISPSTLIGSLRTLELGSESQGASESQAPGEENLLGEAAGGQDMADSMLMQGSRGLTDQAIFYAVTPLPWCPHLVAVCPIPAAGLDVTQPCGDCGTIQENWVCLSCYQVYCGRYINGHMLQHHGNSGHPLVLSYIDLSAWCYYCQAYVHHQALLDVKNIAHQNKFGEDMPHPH
Assay: HDAC6 enzyme inhibitory assay (HDAC-Glo I/II Assay kit)
Assay type: biochemical
Details: wells without enzyme = 100% inhibition; for inhibition at 10 µM: read-out: HDAC6 inhibitory rate (%) (10 μM)
Outline: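 Full-length GST-purified HDAC6 from Sf-9 cells preincubated with compound 60 min at room temperature in Tris-HCl pH 7.5 buffer with MgCl2, KCl, NaCl, glutathione, Tween-20. Substrate-developer reaction 20 min, luminescence read; no-enzyme wells set as 100% inhibition.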

| inhibition at 10 µM | Structure (SMILES) | also measured |
| --- | --- | --- |
| 100% | O=C1c2cc(-c3nnc(C(F)F)o3)ccc2CN1[C@H](C1CCC(F)(F)CC1)[C@@H](O)c1ccc(F)nc1 (racemic) [Example 82, 2-[(1RS,2SR)-1-(4,4-difluoro-cyclohexyl)-2-(6-fluoropyridin-3-yl)-2-hydroxyethyl]-6-[5-(difluoromethyl)-1,3,4-oxadiazol-2-yl]-2,3-dihydro-1H-isoindol-1-one] |  |
| 101% | O=C1c2cc(-c3nnc(C(F)F)o3)ccc2CN1[C@H](c1ncccn1)[C@@H](O)c1cccc(F)c1 (single isomer, unassigned) [Example 68, 6-[5-(difluoromethyl)-1,3,4-oxadiazol-2-yl]-2-[(1R*,2S*)-2-(3-fluorophenyl)-2-hydroxy-1-(pyrimidin-2-yl)ethyl]-2,3-dihydro-1H-isoindol-1-one] |  |
| 99% | O=C1c2cc(-c3nnc(C(F)F)o3)ccc2CN1[C@H](c1ccc(F)cc1)[C@@H](O)c1cccc(F)c1 (racemic) [Example 16, 6-[5-(difluoromethyl)-1,3,4-oxadiazol-2-yl]-2-[(1RS,2SR)-2-(3-fluorophenyl)-1-(4-fluorophenyl)-2-hydroxyethyl]-2,3-dihydro-1H-isoindol-1-one] |  |
| 100% | O=C1c2cc(-c3nnc(C(F)F)o3)ccc2CN1[C@H](c1ccc(F)cc1)[C@@H](O)c1ccc(F)nc1 (racemic) [Example 58, 6-[5-(difluoromethyl)-1,3,4-oxadiazol-2-yl]-2-[(1RS,2SR)-1-(4-fluorophenyl)-2-(6-fluoropyridin-3-yl)-2-hydroxyethyl]-2,3-dihydro-1H-isoindol-1-one] |  |
| 101% | O=C1c2cc(-c3nnc(C(F)F)o3)ccc2CN1[C@H](C1CCOCC1)[C@@H](O)c1ccc(F)c(Cl)c1 (racemic) [Example 107, 2-[(1RS,2SR)-2-(3-chloro-4-fluorophenyl)-2-hydroxy-1-(oxan-4-yl)ethyl]-6-[5-(difluoromethyl)-1,3,4-oxadiazol-2-yl]-2,3-dihydro-1H-isoindol-1-one] |  |
| 101% | O=C1c2cc(-c3nnc(C(F)F)o3)ccc2CN1[C@H](C1CCOCC1)[C@H](O)c1ccc(F)cc1 [Example 148, 6-[5-(difluoromethyl)-1,3,4-oxadiazol-2-yl]-2-[(1R,2R)-2-(4-fluorophenyl)-2-hydroxy-1-(oxan-4-yl)ethyl]-2,3-dihydro-1H-isoindol-1-one] |  |
| 100% | O=C1c2cc(-c3nnc(C(F)F)o3)ccc2CN1[C@@H](c1ccccn1)[C@H](O)c1ccccn1 [Example 2, 6-[5-(difluoromethyl)-1,3,4-oxadiazol-2-yl]-2-[(1S,2S)-2-hydroxy-1,2-di(pyridin-2-yl)ethyl]-2,3-dihydro-1H-isoindol-1-one] |  |

Continued, compound first:

| Structure (SMILES) | inhibition at 10 µM | also measured |
| --- | --- | --- |
| O=C1c2cc(-c3nnc(C(F)F)o3)ccc2CN1[C@H](C1CC1)[C@@H](O)c1cccc(F)n1 (single isomer, unassigned) [Example 80, 2-[(1R*,2R*)-1-cyclopropyl-2-(6-fluoropyridin-2-yl)-2-hydroxyethyl]-6-[5-(difluoromethyl)-1,3,4-oxadiazol-2-yl]-2,3-dihydro-1H-isoindol-1-one] |  | HDAC6 inhibitory rate (%) (10 μM) (10 µM): 100% |
| O=C1c2cc(-c3nnc(C(F)F)o3)ccc2CN1[C@@H](c1ccc(F)cc1)[C@@H](O)c1ccccc1 (racemic) [Example 138, 6-[5-(difluoromethyl)-1,3,4-oxadiazol-2-yl]-2-[(1SR,2SR)-1-(4-fluorophenyl)-2-hydroxy-2-phenylethyl]-2,3-dihydro-1H-isoindol-1-one] | 99% |  |
| O=C1c2cc(-c3nnc(C(F)F)o3)ccc2CN1[C@H](c1ccccc1)[C@@H](O)c1cccc(F)c1 (racemic) [Example 23, 6-[5-(difluoromethyl)-1,3,4-oxadiazol-2-yl]-2-[(1RS,2SR)-2-(3-fluorophenyl)-2-hydroxy-1-phenylethyl]-2,3-dihydro-1H-isoindol-1-one] | 100% |  |
| O=C1c2cc(-c3nnc(C(F)F)o3)ccc2CN1[C@H](c1ccc(F)cc1)[C@H](O)c1cccc(F)c1 (racemic) [Example 147, 6-[5-(difluoromethyl)-1,3,4-oxadiazol-2-yl]-2-[(1RS,2RS)-2-(3-fluorophenyl)-1-(4-fluorophenyl)-2-hydroxyethyl]-2,3-dihydro-1H-isoindol-1-one] | 99% |  |
| O=C1c2cc(-c3nnc(C(F)F)o3)ccc2CN1[C@H](c1ccc(F)nc1)[C@@H](O)c1ccc(F)cc1 (single isomer, unassigned) [Example 35, 6-[5-(difluoromethyl)-1,3,4-oxadiazol-2-yl]-2-[(1R*,2S*)-2-(4-fluorophenyl)-1-(6-fluoropyridin-3-yl)-2-hydroxyethyl]-2,3-dihydro-1H-isoindol-1-one] |  | HDAC6 inhibitory rate (%) (10 μM): 100% |
| O=C1c2cc(-c3nnc(C(F)F)o3)ccc2CN1[C@H](c1ccc(F)cc1F)[C@@H](O)c1ccc(F)cc1 (single isomer, unassigned) [Example 32, 6-[5-(difluoromethyl)-1,3,4-oxadiazol-2-yl]-2-[(1R*,2S*)-1-(2,4-difluorophenyl)-2-(4-fluorophenyl)-2-hydroxyethyl]-2,3-dihydro-1H-isoindol-1-one] | 99% |  |
| O=C1c2cc(-c3nnc(C(F)F)o3)ccc2CN1[C@H](c1cnccn1)[C@@H](O)c1cccc(Cl)c1 (single isomer, unassigned) [Example 92, 2-[(1R*,2S*)-2-(3-chlorophenyl)-2-hydroxy-1-(pyrazin-2-yl)ethyl]-6-[5-(difluoromethyl)-1,3,4-oxadiazol-2-yl]-2,3-dihydro-1H-isoindol-1-one] |  | HDAC6 inhibitory rate (%) (10 μM): 100% |
| O=C1c2cc(-c3nnc(C(F)F)o3)ccc2CN1[C@H](C1CC1)[C@@H](O)c1ncccn1 (single isomer, unassigned) [Example 74, 2-[(1R*,2R*)-1-cyclopropyl-2-hydroxy-2-(pyrimidin-2-yl)ethyl]-6-[5-(difluoromethyl)-1,3,4-oxadiazol-2-yl]-2,3-dihydro-1H-isoindol-1-one] |  | HDAC6 inhibitory rate (%) (10 μM) (10 µM): 96% |
| O=C1c2cc(-c3nnc(C(F)F)o3)ccc2CN1[C@H](c1ccc(F)cn1)[C@@H](O)c1ccccn1 (single isomer, unassigned) [Example 60] |  | HDAC6 inhibitory rate (%) (10 μM) (10 µM): 99% |
| O=C1c2cc(-c3nnc(C(F)F)o3)ccc2CN1[C@H](c1cnccn1)[C@@H](O)c1ccc(F)c(F)c1 (single isomer, unassigned) [Example 86, 6-[5-(difluoromethyl)-1,3,4-oxadiazol-2-yl]-2-[(1R*,2S*)-2-(3,4-difluorophenyl)-2-hydroxy-1-(pyrazin-2-yl)ethyl]-2,3-dihydro-1H-isoindol-1-one] |  | HDAC6 inhibitory rate (%) (10 μM): 100% |
| O=C1c2cc(-c3nnc(C(F)F)o3)ccc2CN1[C@@H](c1ccccc1)[C@@H](O)c1ccccc1 [Example 13, 6-[5-(difluoromethyl)-1,3,4-oxadiazol-2-yl]-2-[(1S,2S)-2-hydroxy-1,2-diphenylethyl]-2,3-dihydro-1H-isoindol-1-one] | 99% |  |
| O=C1c2cc(-c3nnc(C(F)F)o3)ccc2CN1[C@H](c1ccc(F)cc1F)[C@@H](O)c1ccc(F)cc1 (single isomer, unassigned) [Example 33, 6-[5-(difluoromethyl)-1,3,4-oxadiazol-2-yl]-2-[(1R*,2S*)-1-(2,4-difluorophenyl)-2-(4-fluorophenyl)-2-hydroxyethyl]-2,3-dihydro-1H-isoindol-1-one] |  | HDAC6 inhibitory rate (%) (10 μM) (10 µM): 100% |
| O=C1c2cc(-c3nnc(C(F)F)o3)ccc2CN1[C@H](c1ccccn1)[C@@H](O)c1ccccc1 (single isomer, unassigned) [Example 103, 6-[5-(difluoromethyl)-1,3,4-oxadiazol-2-yl]-2-[(1R*,2S*)-2-hydroxy-2-phenyl-1-(pyridin-2-yl)ethyl]-2,3-dihydro-1H-isoindol-1-one] |  | HDAC6 inhibitory rate (%) (10 μM): 100% |
| O=C1c2cc(-c3nnc(C(F)F)o3)ccc2CN1[C@H](c1ncccn1)[C@@H](O)c1cccc(F)c1 (single isomer, unassigned) [Example 69, 6-[5-(difluoromethyl)-1,3,4-oxadiazol-2-yl]-2-[(1R*,2S*)-2-(3-fluorophenyl)-2-hydroxy-1-(pyrimidin-2-yl)ethyl]-2,3-dihydro-1H-isoindol-1-one] |  | HDAC6 inhibitory rate (%) (10 μM) (10 µM): 100% |
